According to ChEMBL document CHEMBL1201861, “Genomics of Drug Sensitity in Cancer screening data, Wellcome Trust Sanger Institute”:

Tests used:
HSC-4 = test: cells; assay type: functional, cell-based, Homo sapiens; conditions: Homo sapiens, HSC-4;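 further: growth inhibition of human HSC-4 cells, read out with a cell viability assay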
Description: SANGER: Inhibition of human HSC-4 cell growth in a cell viability assay.

NCI-H1882 = test: cells; assay type: functional, cell-based, Homo sapiens; conditions: Homo sapiens, NCI-H1882;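 further: growth inhibition of the cell line, determined with a viability assay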
Description: SANGER: Inhibition of human NCI-H1882 cell growth in a cell viability assay.

COLO-678 = test: cells; assay type: functional, cell-based, Homo sapiens; conditions: Homo sapiens, COLO-678
Description: SANGER: Inhibition of human COLO-678 cell growth in a cell viability assay.

NCI-H2342 = test: cells; assay type: functional, cell-based, Homo sapiens; conditions: Homo sapiens, NCI-H2342;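 further: growth inhibition of the cancer cell line, determined with a cell viability assay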
Description: SANGER: Inhibition of human NCI-H2342 cell growth in a cell viability assay.

COLO-741 = test: cells; assay type: functional, cell-based, Homo sapiens; conditions: Homo sapiens, COLO-741
Description: SANGER: Inhibition of human COLO-741 cell growth in a cell viability assay.

A673 = test: cells; assay type: functional, cell-based, Homo sapiens; conditions: Homo sapiens, A673;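 further: growth inhibition of human A673 cells, read out through a cell viability assay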
Description: SANGER: Inhibition of human A673 cell growth in a cell viability assay.

SIG-M5 = test: cells; assay type: functional, cell-based, Homo sapiens; conditions: Homo sapiens, SIG-M5;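 further: cell viability assay read-out, measuring how strongly growth of cultured human SIG-M5 cells is inhibited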
Description: SANGER: Inhibition of human SIG-M5 cell growth in a cell viability assay.

T98G = test: cells; assay type: functional, cell-based, Homo sapiens; conditions: Homo sapiens, T98G;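 further: growth inhibition of T98G cells, read out by a cell viability assay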
Description: SANGER: Inhibition of human T98G cell growth in a cell viability assay.

KYSE-450 = test: cells; assay type: functional, cell-based, Homo sapiens; conditions: Homo sapiens, KYSE-450;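 further: cell growth inhibition measured by a viability assay in human KYSE-450 cells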
Description: SANGER: Inhibition of human KYSE-450 cell growth in a cell viability assay.

HuO-3N1 = test: cells; assay type: functional, cell-based, Homo sapiens; conditions: Homo sapiens, HuO-3N1;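 further: cell viability readout used to measure how strongly compounds suppress proliferation of human HuO-3N1 cells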
Description: SANGER: Inhibition of human HuO-3N1 cell growth in a cell viability assay.

SW837 = test: cells; assay type: functional, cell-based, Homo sapiens; conditions: Homo sapiens, SW837;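 further: growth inhibition of SW837 cells, determined with a cell viability assay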
Description: SANGER: Inhibition of human SW837 cell growth in a cell viability assay.

LC-1F = test: cells; assay type: functional, cell-based, Homo sapiens; conditions: Homo sapiens, LC-1F;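 further: growth inhibition of human LC-1F cells, read out with a cell viability assay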
Description: SANGER: Inhibition of human LC-1F cell growth in a cell viability assay.

NCI-H716 = test: cells; assay type: functional, cell-based, Homo sapiens; conditions: Homo sapiens, NCI-H716;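 further: growth inhibition of human NCI-H716 cells, measured by a cell viability assay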
Description: SANGER: Inhibition of human NCI-H716 cell growth in a cell viability assay.

A204 = test: cells; assay type: functional, cell-based, Homo sapiens; conditions: Homo sapiens, A204;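 further: growth inhibition of human A204 cells, read out with a cell viability assay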
Description: SANGER: Inhibition of human A204 cell growth in a cell viability assay.

WSU-NHL = test: cells; assay type: functional, cell-based, Homo sapiens; conditions: Homo sapiens, WSU-NHL;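 further: growth inhibition of human WSU-NHL cells, read out with a cell viability assay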
Description: SANGER: Inhibition of human WSU-NHL cell growth in a cell viability assay.

SCC-25 = test: cells; assay type: functional, cell-based, Homo sapiens; conditions: Homo sapiens, SCC-25;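 further: growth inhibition of SCC-25 cells, measured with a cell viability assay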
Description: SANGER: Inhibition of human SCC-25 cell growth in a cell viability assay.

MDA-MB-361 = test: cells; assay type: functional, cell-based, Homo sapiens; conditions: Homo sapiens, MDA-MB-361
OVCAR-5 = test: cells; assay type: functional, cell-based, Homo sapiens; conditions: Homo sapiens, OVCAR-5;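 further: growth inhibition of human OVCAR-5 cells, read out with a cell viability assay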
Description: SANGER: Inhibition of human OVCAR-5 cell growth in a cell viability assay.

MDA-MB-453 = test: cells; assay type: functional, cell-based, Homo sapiens; conditions: Homo sapiens, MDA-MB-453
Description: SANGER: Inhibition of human MDA-MB-453 cell growth in a cell viability assay.

NCI-H345 = test: cells; assay type: functional, cell-based, Homo sapiens; conditions: Homo sapiens, NCI-H345;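 further: growth inhibition of NCI-H345 cells measured with a cell viability assay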
Description: SANGER: Inhibition of human NCI-H345 cell growth in a cell viability assay.

MFE-280 = test: cells; assay type: functional, cell-based, Homo sapiens; conditions: Homo sapiens, MFE-280;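 further: growth inhibition of MFE-280 cells, determined with a cell viability readout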
Description: SANGER: Inhibition of human MFE-280 cell growth in a cell viability assay.

NCI-H661 = test: cells; assay type: functional, cell-based, Homo sapiens; conditions: Homo sapiens, NCI-H661;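 further: cell viability assay read-out, IC50 being the concentration that inhibits growth of the cells by half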
Description: SANGER: Inhibition of human NCI-H661 cell growth in a cell viability assay.

NCI-H28 = test: cells; assay type: functional, cell-based, Homo sapiens; conditions: Homo sapiens, NCI-H28;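 further: growth inhibition of human NCI-H28 cells, read out as cell viability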
Description: SANGER: Inhibition of human NCI-H28 cell growth in a cell viability assay.

NCI-H1573 = test: cells; assay type: functional, cell-based, Homo sapiens; conditions: Homo sapiens, NCI-H1573;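 further: growth inhibition of NCI-H1573 cells, read out with a cell viability assay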
Description: SANGER: Inhibition of human NCI-H1573 cell growth in a cell viability assay.

ACHN = test: cells; assay type: functional, cell-based, Homo sapiens; conditions: Homo sapiens, ACHN;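 further: cell viability read-out used to gauge how strongly growth of human ACHN cells is suppressed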
Description: SANGER: Inhibition of human ACHN cell growth in a cell viability assay.

T84 = test: cells; assay type: functional, cell-based, Homo sapiens; conditions: Homo sapiens, T84;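 further: growth inhibition measured with a cell viability readout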
Description: SANGER: Inhibition of human T84 cell growth in a cell viability assay.

MONO-MAC-6 = test: cells; assay type: functional, cell-based, Homo sapiens; conditions: Homo sapiens, MONO-MAC-6;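 further: cell viability assay measuring growth inhibition of human MONO-MAC-6 cells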
Description: SANGER: Inhibition of human MONO-MAC-6 cell growth in a cell viability assay.

CAL-39 = test: cells; assay type: functional, cell-based, Homo sapiens; conditions: Homo sapiens, CAL-39;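 further: cell viability assay measuring growth inhibition of CAL-39 cells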
Description: SANGER: Inhibition of human CAL-39 cell growth in a cell viability assay.

NCI-H2347 = test: cells; assay type: functional, cell-based, Homo sapiens; conditions: Homo sapiens, NCI-H2347;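 further: growth inhibition of the cell line, read out with a cell viability assay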
Description: SANGER: Inhibition of human NCI-H2347 cell growth in a cell viability assay.

LCLC-97TM1 = test: cells; assay type: functional, cell-based, Homo sapiens; conditions: Homo sapiens, LCLC-97TM1;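 further: cell viability assay measuring growth inhibition of human LCLC-97TM1 cells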
Description: SANGER: Inhibition of human LCLC-97TM1 cell growth in a cell viability assay.

YT = test: cells; assay type: functional, cell-based, Homo sapiens; conditions: Homo sapiens, YT
Description: SANGER: Inhibition of human YT cell growth in a cell viability assay.

NCI-H2009 = test: cells; assay type: functional, cell-based, Homo sapiens; conditions: Homo sapiens, NCI-H2009;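 further: cell viability assay measuring inhibition of NCI-H2009 cell growth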
Description: SANGER: Inhibition of human NCI-H2009 cell growth in a cell viability assay.

IMR-5 = test: cells; assay type: functional, cell-based, Homo sapiens; conditions: Homo sapiens, IMR-5;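 further: growth inhibition of human IMR-5 cells, read out with a cell viability assay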
Description: SANGER: Inhibition of human IMR-5 cell growth in a cell viability assay.

RT-112 = test: cells; assay type: functional, cell-based, Homo sapiens; conditions: Homo sapiens, RT-112
Description: SANGER: Inhibition of human RT-112 cell growth in a cell viability assay.

HCC1937 = test: cells; assay type: functional, cell-based, Homo sapiens; conditions: Homo sapiens, HCC1937;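 further: growth inhibition measured with a cell viability read-out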
Description: SANGER: Inhibition of human HCC1937 cell growth in a cell viability assay.

639-V = test: cells; assay type: functional, cell-based, Homo sapiens; conditions: Homo sapiens, 639-V;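 further: growth inhibition of 639-V cells, read out with a cell viability assay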
Description: SANGER: Inhibition of human 639-V cell growth in a cell viability assay.

CP50-MEL-B = test: cells; assay type: functional, cell-based, Homo sapiens; conditions: Homo sapiens, CP50-MEL-B;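 further: growth inhibition of the human cell line, measured with a cell viability read-out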
Description: SANGER: Inhibition of human CP50-MEL-B cell growth in a cell viability assay.

MCF7 = test: cells; assay type: functional, cell-based, Homo sapiens; conditions: Homo sapiens, MCF7;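 further: growth inhibition of human MCF7 cells, read out with a cell viability assay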
Description: SANGER: Inhibition of human MCF7 cell growth in a cell viability assay.

CA46 = test: cells; assay type: functional, cell-based, Homo sapiens; conditions: Homo sapiens, CA46;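 further: growth inhibition of human CA46 cells, read out by a cell viability assay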
Description: SANGER: Inhibition of human CA46 cell growth in a cell viability assay.

NCI-H1694 = test: cells; assay type: functional, cell-based, Homo sapiens; conditions: Homo sapiens, NCI-H1694;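 further: cell viability assay measuring inhibition of growth in human NCI-H1694 cells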
Description: SANGER: Inhibition of human NCI-H1694 cell growth in a cell viability assay.

OAW-42 = test: cells; assay type: functional, cell-based, Homo sapiens; conditions: Homo sapiens, OAW-42;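 further: growth inhibition of OAW-42 cells, read out with a cell viability assay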
Description: SANGER: Inhibition of human OAW-42 cell growth in a cell viability assay.

G-402 = test: cells; assay type: functional, cell-based, Homo sapiens; conditions: Homo sapiens, G-402
Description: SANGER: Inhibition of human G-402 cell growth in a cell viability assay.

NCCIT = test: SANGER: Inhibition of human NCCIT cell growth in a cell viability assay.; assay type: functional, cell-based; conditions: Homo sapiens, NCCIT
Huh-7 = test: cells; assay type: functional, cell-based, Homo sapiens; conditions: Homo sapiens, Huh-7;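 further: HuH-7 cell growth inhibition, read out with a cell viability assay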
Description: SANGER: Inhibition of human HuH-7 cell growth in a cell viability assay.

Measured: IC50

C=C(c1ccc(C(=O)O)cc1)c1cc2c(cc1C)C(C)(C)CCC2(C)C [BEXAROTENE]
> 8000 nM: NCI-H1573
< 31.2 nM: SIG-M5
> 8 µM: all other assays above

CCC/C=C/C=C/C(=O)O[C@H]1/C(=C/C(=O)OC)C[C@H]2C[C@H]([C@@H](C)O)OC(=O)C[C@H](O)C[C@@H]3C[C@H](OC(C)=O)C(C)(C)[C@](O)(C[C@@H]4C/C(=C/C(=O)OC)C[C@H](/C=C/C(C)(C)[C@]1(O)O2)O4)O3 [BRYOSTATIN 1]
1.56 nM: SIG-M5
2.36 nM: NCI-H1573
> 0.008 µM: all other assays above
